# Laboratory results as given in patent US20230265116A1, “DEGRADATION OF (EGFR) BY CONJUGATION OF EGFR INHIBITORS WITH E3 LIGASE LIGAND AND METHODS OF USE” (BEIGENE, LTD., priority 2020, published 2023).
# Like-named read-outs stand apart in the source and are kept apart here.
# Columns and labels:
# [1] = target: T1, EGFR L858R/T790M/C797S (BaF3-LTC cells) (Homo sapiens, UniProt P00533, C797S/L858R/T790M); assay: EGFR degradation HTRF assay, BaF3-LTC cells; type: cell-based
# T1 construct: expressed in transfected cells; host or cells: BaF3
# Method in brief: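 Cells treated 16 h at 37 °C, 5% CO2 in medium with 0.2% DMSO; top final concentration 10 uM, 5-fold dilution, 8 doses. Lysates read by HTRF (665/620 nm); degradation % versus DMSO high control, DC50 from four-parameter fit, Dmax as maximal degradation.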
# [2] = test system: EGFR Del19/T790M/C797S (H1975-clone #28); assay: EGFR degradation HTRF assay, H1975-clone #28 DTC cells; type: cell-based
# Method in brief: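 The test uses H1975 clonal lines carrying lentiviral mutant EGFR with endogenous copies removed, treated 16h at 37° C., 5% CO2. EGFR left in the lysate is quantified by HTRF, and DC50 is derived from an 8-dose curve starting at 10 uM final.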
# [3] = BaF3-LTC cells; EGFR degradation, IC50 (DC50) from curve fit; read-out: DC50(nM) BaF3-LTC
# [4] = BaF3-LTC cells; maximum percentage of inhibition (degradation); read-out: Dmax (%) BaF3-LTC
# [5] = H1975 # 28 DTC cells; EGFR degradation, IC50 (DC50) from curve fit; read-out: DC50(nM) H1975 # 28 DTC
# [6] = H1975 # 28 DTC cells; maximum percentage of inhibition (degradation)
# T1 sequence (P00533 25-1210 T790M/C797S/L858R): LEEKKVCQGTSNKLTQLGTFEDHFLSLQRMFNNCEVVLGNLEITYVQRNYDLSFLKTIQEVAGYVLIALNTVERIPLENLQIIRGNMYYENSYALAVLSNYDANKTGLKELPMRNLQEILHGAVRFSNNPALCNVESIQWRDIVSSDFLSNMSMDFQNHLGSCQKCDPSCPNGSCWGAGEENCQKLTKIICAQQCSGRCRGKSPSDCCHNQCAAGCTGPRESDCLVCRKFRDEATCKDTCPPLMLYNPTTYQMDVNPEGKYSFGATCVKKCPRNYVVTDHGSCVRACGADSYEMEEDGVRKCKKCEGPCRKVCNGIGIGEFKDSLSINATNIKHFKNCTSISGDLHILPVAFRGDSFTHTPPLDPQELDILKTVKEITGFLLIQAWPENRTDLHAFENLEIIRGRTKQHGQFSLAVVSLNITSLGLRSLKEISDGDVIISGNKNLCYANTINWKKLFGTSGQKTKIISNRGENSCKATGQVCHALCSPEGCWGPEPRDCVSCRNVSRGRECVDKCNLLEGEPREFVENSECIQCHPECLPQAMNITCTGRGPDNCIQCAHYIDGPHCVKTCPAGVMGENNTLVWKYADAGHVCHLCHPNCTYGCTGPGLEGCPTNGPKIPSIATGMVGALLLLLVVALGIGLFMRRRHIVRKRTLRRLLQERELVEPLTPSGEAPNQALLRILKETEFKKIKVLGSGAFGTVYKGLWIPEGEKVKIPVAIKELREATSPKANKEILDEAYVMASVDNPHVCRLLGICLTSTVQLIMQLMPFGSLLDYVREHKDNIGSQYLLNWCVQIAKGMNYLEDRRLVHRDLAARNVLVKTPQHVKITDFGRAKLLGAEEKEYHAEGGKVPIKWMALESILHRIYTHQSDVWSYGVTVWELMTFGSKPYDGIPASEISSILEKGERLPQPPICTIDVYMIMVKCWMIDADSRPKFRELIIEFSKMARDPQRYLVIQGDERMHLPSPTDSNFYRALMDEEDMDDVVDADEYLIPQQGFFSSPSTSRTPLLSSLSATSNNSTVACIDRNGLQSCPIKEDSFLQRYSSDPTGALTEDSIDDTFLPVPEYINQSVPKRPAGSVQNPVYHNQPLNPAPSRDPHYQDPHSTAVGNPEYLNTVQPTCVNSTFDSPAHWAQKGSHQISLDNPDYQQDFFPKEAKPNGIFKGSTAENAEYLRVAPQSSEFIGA
SMILES,"DC50 [1, 3] [nM]","Dmax [1, 4] [%]","DC50 [2, 5] [nM]","Dmax (%) H1975 # 28 DTC [2, 6] [%]",Dmax (%) BaF3-LTC ([1]; BaF3-LTC cells; maximum percentage of inhibition (degradation)) [%],"DC50 ([1]; read-out: DC50(nM) BaF3-LTC; BaF3-LTC cells; EGFR degradation, IC50 (DC50) from curve fit) [nM]","DC50 ([2]; read-out: DC50(nM) H1975 # 28 DTC; H1975 # 28 DTC cells; EGFR degradation, IC50 (DC50) from curve fit) [nM]"
"COc1cc(N2CCC3(CCN(CCCCCOc4cccc5c4CN(C4CCC(=O)NC4=O)C5=O)CC3)CC2)c(C)cc1Nc1ncc(Br)c(Nc2ccc3nccnc3c2P(C)(C)=O)n1 (centres unmarked) [Example 542, 3-(4-((5-(9-(4-((5-bromo-4-((5-(dimethylphosphoryl)quinoxalin-6-yl)amino)pyrimidin-2-yl)amino)-5-methoxy-2-methylphenyl)-3,9-diazaspiro[5.5]undecan-3-yl)pentyl)oxy)-1-oxoisoindolin-2-yl)piperidine-2,6-dione]",11.2,,0.75,45.37,,,
"CCOc1cc(N2CCC(N3CCN(CCc4cccc5c4oc(=O)n5C4CCC(=O)NC4=O)CC3)CC2)c(CC)cc1Nc1ncc(Br)c(Nc2ccc3c(=O)n(CC)ncc3c2P(C)(C)=O)n1 (centres unmarked) [Example 644, 3-(7-(2-(4-(1-(4-((5-bromo-4-((5-(dimethylphosphoryl)-2-ethyl-1-oxo-1,2-dihydrophthalazin-6-yl)amino)pyrimidin-2-yl)amino)-5-ethoxy-2-ethylphenyl)piperidin-4-yl)piperazin-1-yl)ethyl)-2-oxobenzo[d]oxazol-3(2H)-yl)piperidine-2,6-dione]",5.12,92.6,0.829,86.29,,,
"CCOc1cc(N2CCC(N3CCN(CCc4cc5oc(=O)n(C6CCC(=O)NC6=O)c5cc4F)CC3)CC2)c(CC)cc1Nc1ncc(Br)c(Nc2ccc3nc(CC)ncc3c2P(C)(C)=O)n1 (centres unmarked) [Example 609, 3-(6-(2-(4-(1-(4-((5-bromo-4-((5-(dimethylphosphoryl)-2-ethylquinazolin-6-yl)amino)pyrimidin-2-yl)amino)-5-ethoxy-2-ethylphenyl)piperidin-4-yl)piperazin-1-yl)ethyl)-5-fluoro-2-oxobenzo[d]oxazol-3(2H)-yl)piperidine-2,6-dione]",,,,74.7,89.57,11.5,3.07

# More lines, main results first:
"DC50 [1, 3] [nM]","Dmax [1, 4] [%]","DC50 [2, 5] [nM]",SMILES,"Dmax (%) H1975 # 28 DTC [2, 6] [%]",Dmax (%) BaF3-LTC ([1]; BaF3-LTC cells; maximum percentage of inhibition (degradation)) [%],"DC50 ([1]; read-out: DC50(nM) BaF3-LTC; BaF3-LTC cells; EGFR degradation, IC50 (DC50) from curve fit) [nM]","DC50 ([2]; read-out: DC50(nM) H1975 # 28 DTC; H1975 # 28 DTC cells; EGFR degradation, IC50 (DC50) from curve fit) [nM]"
12.5,83.7,1.18,"CCOc1cc(N2CCC(N3CCN(CCc4ccc(F)c5c4oc(=O)n5C4CCC(=O)NC4=O)CC3)CC2)c(CC)cc1Nc1ncc(Br)c(Nc2cc(F)c3nc(CC)ccc3c2P(C)(C)=O)n1 (centres unmarked) [Example 592, 3-(7-(2-(4-(1-(4-((5-bromo-4-((5-(dimethylphosphoryl)-2-ethyl-8-fluoroquinolin-6-yl)amino)pyrimidin-2-yl)amino)-5-ethoxy-2-ethylphenyl)piperidin-4-yl)piperazin-1-yl)ethyl)-4-fluoro-2-oxobenzo[d]oxazol-3(2H)-yl)piperidine-2,6-dione]",82.2,,,
6.92,89.5,0.962,"CCc1ccc2c(P(C)(C)=O)c(Nc3nc(Nc4cc(CC)c(N5CCC(N6CCN(CC7CN(c8cccc9c8oc(=O)n9C8CCC(=O)NC8=O)C7)CC6)CC5)cc4OC)ncc3Br)ccc2n1 (centres unmarked) [Example 448, 3-(7-(3-((4-(1-(4-((5-bromo-4-((5-(dimethylphosphoryl)-2-ethylquinolin-6-yl)amino)pyrimidin-2-yl)amino)-2-ethyl-5-methoxyphenyl)piperidin-4-yl)piperazin-1-yl)methyl)azetidin-1-yl)-2-oxobenzo[d]oxazol-3(2H)-yl)piperidine-2,6-dione]",83.19,,,
18,87.4,0.641,"CCOc1cc(N2CCC(N3CCN(CCCOc4cc(F)c([C@H]5CCC(=O)NC5=O)c(F)c4)CC3)CC2)c(CC)cc1Nc1ncc(Br)c(Nc2ccc3c(=O)n(CC)ncc3c2P(C)(C)=O)n1 [Example 735, (R)-3-(4-(3-(4-(1-(4-((5-bromo-4-((5-(dimethylphosphoryl)-2-ethyl-1-oxo-1,2-dihydrophthalazin-6-yl)amino)pyrimidin-2-yl)amino)-5-ethoxy-2-ethylphenyl)piperidin-4-yl)piperazin-1-yl)propoxy)-2,6-difluorophenyl)piperidine-2,6-dione]",80.09,,,
